Results from patent US20100222332A1, “PYRAZOLO-PYRAZINES DERIVATIVES USED AS G PROTEIN INHIBITORS” (Ipsen Pharma S.A.S., priority 2007, published 2010).
Counter-ions that a name gives are not always drawn.

System: A2058 (human melanoma cancer cells)
Test: Anti-proliferative activity on A2058 cell line (WST1 colorimetric test)
Type: cell-based
Details: treated for 96 hours, read-out: IC50 on the cell proliferation of the A2058 lines
Description: (§1) By way of example, the effect of a treatment on three human cell lines DU145, LNCaP and A2058 with the compounds of the examples described previously will be studied. The cell lines DU145 and LNCaP (human prostate cancer cells) and A2058 (human melanoma cancer cells) were acquired from the American Tissue Culture Collection (Rockville, Md., USA). The cells placed in 80 μl of Dulbecco's Modified Eagle medium (Gibco-Brl, Cergy-Pontoise, France) completed with 10% foetal calf serum inactivated by heating (Gibco-Brl, Cergy-Pontoise, France), 50000 units/l of penicillin and 50 mg/l streptomycin (Gibco-Brl, Cergy-Pontoise, France), and 2 mM of glutamin (Gibco-Brl, Cergy-Pontoise, France) were seeded on a 96-well plate on day 0. The cells were treated on day 1 for 96 hours with increasing concentrations of each of the compounds to be tested up to 10 μM. At the end of this period, the quantification of the cell proliferation is evaluated by a colorimetric test based on the cleavage of the tetrazolium salt WST1 by mitochondrial dehydrogenases in the viable cells leading to the formation of formazan (Boehringer Mannheim, Meylan, France). These tests are carried out in duplicate with 8 determinations per tested concentration. For each compound to be tested, the values included in the linear part of the sigmoid were retained for linear regression analysis and used in order to estimate the inhibitory concentration IC50. The products are solubilized in dimethylsulphoxide (DMSO) at 10^−2 M and finally used in culture with 0.1% DMSO.

Row | IC50 | SMILES
1 | ≤ 30 µM | N[C@@H](CSSC[C@H](N)C(=O)N1CCn2nc(-c3ccncc3)cc2C1CCc1ccccc1)C(=O)N1CCn2nc(-c3ccncc3)cc2C1CCc1ccccc1 (mixture of isomers) [Example 14, (2R)-3-({(2R)-2-amino-3-oxo-3-[(4RS)-4-(2-phenylethyl)-2-pyridin-4-yl-6,7-dihydropyrazolo[1,5-a]pyrazin-5(4H)-yl]propyl}dithio)-1-oxo-1-[(4RS)-4-(2-phenylethyl)-2-pyridin-4-yl-6,7-dihydropyrazolo[1,5-a]pyrazin-5(4H)-yl]propan-2-amine hydrochloride]
2 | ≤ 20 µM | N[C@@H](CSSC[C@H](N)C(=O)N1CCn2nc(-c3cccnc3)cc2C1CCc1ccccc1)C(=O)N1CCn2nc(-c3cccnc3)cc2C1CCc1ccccc1 (mixture of isomers) [Example 15, (2R)-3-({(2R)-2-amino-3-oxo-3-[(4RS)-4-(2-phenylethyl)-2-pyridin-3-yl-6,7-dihydropyrazolo[1,5-a]pyrazin-5(4H)-yl]propyl}dithio)-1-oxo-1-[(4RS)-4-(2-phenylethyl)-2-pyridin-3-yl-6,7-dihydropyrazolo[1,5-a]pyrazin-5(4H)-yl]propan-2-amine hydrochloride]

System: LNCaP (human prostate cancer cells)
Test: Anti-proliferative activity on LNCaP cell line (WST1 colorimetric test)
Type: cell-based
Details: treated for 96 hours, read-out: IC50 on the cell proliferation of the LNCaP lines
Description: as §1

Row | IC50 | SMILES
3 | ≤ 10 µM | N[C@@H](CSSC[C@H](N)C(=O)N1CCn2nc(-c3ccncc3)cc2C1CCc1ccccc1)C(=O)N1CCn2nc(-c3ccncc3)cc2C1CCc1ccccc1 (mixture of isomers) [Example 14, (2R)-3-({(2R)-2-amino-3-oxo-3-[(4RS)-4-(2-phenylethyl)-2-pyridin-4-yl-6,7-dihydropyrazolo[1,5-a]pyrazin-5(4H)-yl]propyl}dithio)-1-oxo-1-[(4RS)-4-(2-phenylethyl)-2-pyridin-4-yl-6,7-dihydropyrazolo[1,5-a]pyrazin-5(4H)-yl]propan-2-amine hydrochloride]
4 | ≤ 10 µM | N[C@@H](CSSC[C@H](N)C(=O)N1CCn2nc(-c3cccnc3)cc2C1CCc1ccccc1)C(=O)N1CCn2nc(-c3cccnc3)cc2C1CCc1ccccc1 (mixture of isomers) [Example 15, (2R)-3-({(2R)-2-amino-3-oxo-3-[(4RS)-4-(2-phenylethyl)-2-pyridin-3-yl-6,7-dihydropyrazolo[1,5-a]pyrazin-5(4H)-yl]propyl}dithio)-1-oxo-1-[(4RS)-4-(2-phenylethyl)-2-pyridin-3-yl-6,7-dihydropyrazolo[1,5-a]pyrazin-5(4H)-yl]propan-2-amine hydrochloride]

Row | SMILES | IC50
5 | CC(C)(C)OC(=O)N[C@@H](CSSC[C@H](NC(=O)OC(C)(C)C)C(=O)N1CCn2nc(-c3ccncc3)cc2C1CCc1ccccc1)C(=O)N1CCn2nc(-c3ccncc3)cc2C1CCc1ccccc1 (mixture of isomers) [Example 3, tert-butyl {(1R)-1-[({(2R)-2-[(tert-butoxycarbonyl)amino]-3-oxo-3-[(4RS)-4-(2-phenylethyl)-2-pyridin-4-yl-6,7-dihydropyrazolo[1,5-a]pyrazin-5(4H)-yl]propyl}dithio)methyl]-2-oxo-2-[(4RS)-4-(2-phenylethyl)-2-pyridin-4-yl-6,7-dihydropyrazolo[1,5-a]pyrazin-5(4H)-yl]ethyl}carbamate] [listing 1 of 2 here] | ≤ 10 µM

System: not given
Test: not given
Details: not given

Row | SMILES | melting point
6 | CC(C)(C)OC(=O)N[C@@H](CSSC[C@H](NC(=O)OC(C)(C)C)C(=O)N1CCCn2nc(-c3ccccc3)cc2C1CC1CCCCC1)C(=O)N1CCCn2nc(-c3ccccc3)cc2C1CC1CCCCC1 (mixture of isomers) [Example 27, tert-butyl {(1R)-1-[({(2R)-2-[(tert-butoxycarbonyl)amino]-3-[(4RS)-4-(cyclohexylmethyl)-2-phenyl-7,8-dihydro-4H-pyrazolo[1,5-a][1,4]diazepin-5(6H)-yl]-3-oxopropyl}dithio)methyl]-2-[(4RS)-4-(cyclohexylmethyl)-2-phenyl-7,8-dihydro-4H-pyrazolo[1,5-a][1,4]diazepin-5(6H)-yl]-2-oxoethyl}carbamate] | 105 to 116 °C
7 | CC(C)(C)OC(=O)N[C@@H](CSSC[C@H](NC(=O)OC(C)(C)C)C(=O)N1CCn2nc(-c3cccnc3)cc2C1CCc1ccccc1)C(=O)N1CCn2nc(-c3cccnc3)cc2C1CCc1ccccc1 (mixture of isomers) [Example 4, tert-butyl {(1R)-1-[({(2R)-2-[(tert-butoxycarbonyl)amino]-3-oxo-3-[(4RS)-4-(2-phenylethyl)-2-pyridin-3-yl-6,7-dihydropyrazolo[1,5-a]pyrazin-5(4H)-yl]propyl}dithio)methyl]-2-oxo-2-[(4RS)-4-(2-phenylethyl)-2-pyridin-3-yl-6,7-dihydropyrazolo[1,5-a]pyrazin-5(4H)-yl]ethyl}carbamate] | 115 to 130 °C
8 | CCCCCC1c2cc(-c3ccccc3)nn2CCN1C(=O)[C@@H](N)CSSC[C@H](N)C(=O)N1CCn2nc(-c3ccccc3)cc2C1CCCCC (mixture of isomers) (as salt: hydrochloride) [Example 20, (2R)-3-({(2R)-2-amino-3-oxo-3-[(4RS)-4-pentyl-2-phenyl-6,7-dihydropyrazolo[1,5-a]pyrazin-5(4H)-yl]propyl}dithio)-1-oxo-1-[(4RS)-4-pentyl-2-phenyl-6,7-dihydropyrazolo[1,5-a]pyrazin-5(4H)-yl]propan-2-amine hydrochloride] | 199 to 204 °C (dec.)
9 | CC(C)(C)OC(=O)N[C@@H](CSSC[C@H](NC(=O)OC(C)(C)C)C(=O)N1CCn2nc(-c3ccccc3)cc2[C@@H]1CC1CCCCC1)C(=O)N1CCn2nc(-c3ccccc3)cc2[C@@H]1CC1CCCCC1 [Example 23, tert-butyl {(1R)-1-[({(2R)-2-[(tert-butoxycarbonyl)amino]-3-[(4S)-4-(cyclohexylmethyl)-2-phenyl-6,7-dihydropyrazolo[1,5-a]pyrazin-5(4H)-yl]-3-oxopropyl}dithio)methyl]-2-[(4S)-4-(cyclohexylmethyl)-2-phenyl-6,7-dihydropyrazolo[1,5-a]pyrazin-5(4H)-yl]-2-oxoethyl}carbamate] | 106 to 108 °C
10 | N[C@@H](CSSC[C@H](N)C(=O)N1CCn2nc(-c3ccc(Cl)cc3Cl)cc2C1CCc1ccccc1)C(=O)N1CCn2nc(-c3ccc(Cl)cc3Cl)cc2C1CCc1ccccc1 (mixture of isomers) (as salt: hydrochloride) [Example 22, (2R)-3-({(2R)-2-amino-3-[(4RS)-2-(2,4-dichlorophenyl)-4-(2-phenylethyl)-6,7-dihydropyrazolo[1,5-a]pyrazin-5(4H)-yl]-3-oxopropyl}dithio)-1-[(4RS)-2-(2,4-dichlorophenyl)-4-(2-phenylethyl)-6,7-dihydropyrazolo[1,5-a]pyrazin-5(4H)-yl]-1-oxopropan-2-amine hydrochloride] | 198 to 202 °C
11 | CC(C)(C)OC(=O)N[C@@H](CSSC[C@H](NC(=O)OC(C)(C)C)C(=O)N1CCn2nc(-c3ccncc3)cc2C1CCc1ccccc1)C(=O)N1CCn2nc(-c3ccncc3)cc2C1CCc1ccccc1 (mixture of isomers) [Example 3, tert-butyl {(1R)-1-[({(2R)-2-[(tert-butoxycarbonyl)amino]-3-oxo-3-[(4RS)-4-(2-phenylethyl)-2-pyridin-4-yl-6,7-dihydropyrazolo[1,5-a]pyrazin-5(4H)-yl]propyl}dithio)methyl]-2-oxo-2-[(4RS)-4-(2-phenylethyl)-2-pyridin-4-yl-6,7-dihydropyrazolo[1,5-a]pyrazin-5(4H)-yl]ethyl}carbamate] [listing 2 of 2 here] | 149 to 152 °C

More lines, now with the values ahead:

Row | melting point | SMILES
12 | 232 to 234 °C (dec.) | N[C@@H](CSSC[C@H](N)C(=O)N1CCn2nc(-c3ccccn3)cc2C1CCc1ccccc1)C(=O)N1CCn2nc(-c3ccccn3)cc2C1CCc1ccccc1 (mixture of isomers) (as salt: hydrochloride) [Example 32, (2R)-3-({(2R)-2-amino-3-oxo-3-[(4RS)-4-(2-phenylethyl)-2-pyridin-2-yl-6,7-dihydropyrazolo[1,5-a]pyrazin-5(4H)-yl]propyl}dithio)-1-oxo-1-[(4RS)-4-(2-phenylethyl)-2-pyridin-2-yl-6,7-dihydropyrazolo[1,5-a]pyrazin-5(4H)-yl]propan-2-amine hydrochloride]
13 | 208 °C (dec.) | N[C@@H](CSSC[C@H](N)C(=O)N1CCn2nc(-c3ccccc3)cc2C1CCc1ccccc1)C(=O)N1CCn2nc(-c3ccccc3)cc2C1CCc1ccccc1 (mixture of isomers) (as salt: hydrochloride) [Example 13, (2R)-3-({(2R)-2-amino-3-oxo-3-[(4RS)-2-phenyl-4-(2-phenylethyl)-6,7-dihydropyrazolo[1,5-a]pyrazin-5(4H)-yl]propyl}dithio)-1-oxo-1-[(4RS)-2-phenyl-4-(2-phenylethyl)-6,7-dihydropyrazolo[1,5-a]pyrazin-5(4H)-yl]propan-2-amine hydrochloride]
14 | 207 °C (dec.) | N[C@@H](CSSC[C@H](N)C(=O)N1CCn2nc(-c3ccco3)cc2C1CCc1ccccc1)C(=O)N1CCn2nc(-c3ccco3)cc2C1CCc1ccccc1 (mixture of isomers) (as salt: hydrochloride) [Example 19, (2R)-3-({(2R)-2-amino-3-[(4RS)-2-(2-furyl)-4-(2-phenylethyl)-6,7-dihydropyrazolo[1,5-a]pyrazin-5(4H)-yl]-3-oxopropyl}dithio)-1-[(4RS)-2-(2-furyl)-4-(2-phenylethyl)-6,7-dihydropyrazolo[1,5-a]pyrazin-5(4H)-yl]-1-oxopropan-2-amine hydrochloride]
15 | 227 °C (dec.) | N[C@@H](CSSC[C@H](N)C(=O)N1CCn2nc(-c3ccncc3)cc2C1CCc1ccccc1)C(=O)N1CCn2nc(-c3ccncc3)cc2C1CCc1ccccc1 (mixture of isomers) (as salt: hydrochloride) [Example 14, (2R)-3-({(2R)-2-amino-3-oxo-3-[(4RS)-4-(2-phenylethyl)-2-pyridin-4-yl-6,7-dihydropyrazolo[1,5-a]pyrazin-5(4H)-yl]propyl}dithio)-1-oxo-1-[(4RS)-4-(2-phenylethyl)-2-pyridin-4-yl-6,7-dihydropyrazolo[1,5-a]pyrazin-5(4H)-yl]propan-2-amine hydrochloride]
